Data taken from article PMC9739180, “Discovery of a Flavonoid FM04 as a Potent Inhibitor to Reverse P-Glycoprotein-Mediated Drug Resistance in Xenografts and Improve Oral Bioavailability of Paclitaxel” (International Journal of Molecular Sciences, 2022).
Like-named read-outs stand apart in the source and are kept apart here.

Experiments:
P-gp [1] = target: T1, P-gp (Homo sapiens, UniProt P08183); assay: Reversal of P-gp-mediated MDR in LCC6MDR cells (MTS cell viability, 5 days)
Procedure: To each well of a 96-well plate, 6500 cells of LCC6MDR were seeded in 180 μL supplemented medium. A 10 µL compound (FD18, 14a, FM04 or FM327) at different concentrations (0, 62.5, 125, 250, 500 and 1000 nM) was added to the well. […] The final volume in each well was 200 µL and the 96-well plate was incubated at 37 °C for 5 days. The cell viability was determined using the MTS assay as reported previously. The % of cell survival, IC50 of anticancer drugs towards the LCC6MDR and the EC50 of modulators were analyzed using nonlinear regression in Prism 5.0 (Prism version 5.0, GraphPad software, San Diego, CA, USA).

P-gp [2] = target: T1, P-gp; assay: Transepithelial transport of PTX, Caco-2 transwell assay; format: in vitro ADME
Procedure: Figure 7 Mechanistic study of FM04 to increase the oral PTX absorption. (A) transepithelial permeability of PTX in Caco-2 transwell assay. When confluent monolayer of Caco2 cells was formed on the transwell, the permeability of PTX (10 μM) was studied with or without FM04 (10 μM). For apical to basolateral transport (A to B), compound was added at the apical side (donor) and samples of the medium collected at the basal side (receiver) at 0, 20, 40, 60, 80, 100 and 120 min and vice versa for basal to apical transport (B to A). The PTX level was determined using UPLC-MS/MS. The relative % of PTX was presented as mean ± standard error of mean. N = 2–3 independent experiments. Impact of FM04 on PTX metabolism. […] After incubation, the levels of PTX, metabolites 6α-hydroxpaclitaxel (6α-OHP) and p3′-hydroxpaclitaxel (p3-OHP) were determined by HPLC-MS/MS. (B) changes in PTX. […]
Caco-2 cells in between passage number 21 and 30 were used for the experiment, 1 × 10^5 cells/cm^2 Caco-2 cells were seeded in Costar 6-well transwell plate (Corning Inc). […] The integrity of cell monolayers was evaluated on the day of experiments by measuring the trans-epithelial electrical resistance (TEER) of the cell monolayers. […] Drug transport was evaluated at 37 °C by incubating the cells in media containing PTX (10 μM) with or without FM04 (10 μM) at the donor chamber and samples collected at the receiver chamber. […]

T1 sequence (P08183 whole entry): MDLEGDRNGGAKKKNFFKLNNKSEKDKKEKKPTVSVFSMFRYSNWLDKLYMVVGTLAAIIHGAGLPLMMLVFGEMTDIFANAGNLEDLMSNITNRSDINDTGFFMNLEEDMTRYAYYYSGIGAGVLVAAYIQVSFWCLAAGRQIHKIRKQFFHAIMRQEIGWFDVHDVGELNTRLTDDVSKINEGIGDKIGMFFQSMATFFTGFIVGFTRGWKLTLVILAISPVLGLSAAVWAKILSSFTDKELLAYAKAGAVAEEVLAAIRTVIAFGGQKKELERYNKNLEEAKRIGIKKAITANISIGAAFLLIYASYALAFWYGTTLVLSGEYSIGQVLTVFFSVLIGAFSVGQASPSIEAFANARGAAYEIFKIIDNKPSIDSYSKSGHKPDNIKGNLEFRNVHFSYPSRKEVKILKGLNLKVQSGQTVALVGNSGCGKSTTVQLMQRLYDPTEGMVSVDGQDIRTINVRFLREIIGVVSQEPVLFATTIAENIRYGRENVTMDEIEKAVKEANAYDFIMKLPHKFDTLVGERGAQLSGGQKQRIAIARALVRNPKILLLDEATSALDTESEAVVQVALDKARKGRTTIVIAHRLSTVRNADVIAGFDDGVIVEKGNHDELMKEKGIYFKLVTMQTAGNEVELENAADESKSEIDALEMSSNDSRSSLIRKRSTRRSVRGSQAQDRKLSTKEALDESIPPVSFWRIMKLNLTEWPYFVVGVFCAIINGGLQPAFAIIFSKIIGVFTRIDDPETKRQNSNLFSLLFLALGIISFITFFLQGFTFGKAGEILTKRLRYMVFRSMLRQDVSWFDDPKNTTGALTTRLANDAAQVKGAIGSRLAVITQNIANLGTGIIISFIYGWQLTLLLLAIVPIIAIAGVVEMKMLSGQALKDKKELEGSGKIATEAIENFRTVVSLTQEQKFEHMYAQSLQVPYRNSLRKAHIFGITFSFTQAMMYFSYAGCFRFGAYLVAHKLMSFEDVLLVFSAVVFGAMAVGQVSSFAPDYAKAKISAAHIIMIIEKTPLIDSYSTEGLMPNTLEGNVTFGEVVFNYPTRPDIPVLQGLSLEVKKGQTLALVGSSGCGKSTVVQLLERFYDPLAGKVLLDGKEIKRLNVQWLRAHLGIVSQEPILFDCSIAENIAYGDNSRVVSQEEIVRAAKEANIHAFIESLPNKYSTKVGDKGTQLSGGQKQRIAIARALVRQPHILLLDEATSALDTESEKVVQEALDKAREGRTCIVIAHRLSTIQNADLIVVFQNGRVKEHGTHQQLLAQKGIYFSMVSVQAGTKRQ

Compound | RF, LCC6MDR + 1 μM FM04 (P-gp [1]) | RF, LCC6MDR + DMSO (P-gp [1]) | direction of transepithelial transport of PTX (P-gp [2]; PTX 10 µM without FM04) | EC50 (P-gp [1]) [nM] | EC50 needed for reversing MDR in LCC6MDR cells: PTX (P-gp [1]) [nM] | fold higher potency than FD18 in reversing PTX resistance (P-gp [1]) [fold] | EC50 (P-gp [1]; EC50 for P-gp modulation, range over PTX reversal and DOX accumulation in LCC6MDR) [nM] | EC50 (P-gp [1]; EC50 for chemosensitizing LCC6MDR towards vinblastine, vincristine, DOX, daunorubicin and mitoxantrone, range over the five drugs) [nM] | EC50 (P-gp [1]; EC50 needed for reversing MDR in LCC6MDR cells: DOX, LCC6MDR) [nM] | EC50 (P-gp [1]; EC50 needed for reversing MDR in LCC6MDR cells: Daunorubicin, LCC6MDR) [nM] | EC50 (P-gp [1]; EC50 needed for reversing MDR in LCC6MDR cells: Mitoxantrone, LCC6MDR) [nM] | EC50 (P-gp [1]; EC50 needed for reversing MDR in LCC6MDR cells: PTX, LCC6MDR, PTX resistance) [nM] | EC50 (P-gp [1]; EC50 needed for reversing MDR in LCC6MDR cells: Vinblastine, LCC6MDR) [nM] | EC50 (P-gp [1]; EC50 needed for reversing MDR in LCC6MDR cells: Vincristine, LCC6MDR) [nM] | decrease of PTX transport from B to A (P-gp [2]; PTX 10 μM + FM04 10 μM) [%]
CC(=O)O[C@H]1C(=O)[C@@]2(C)[C@H]([C@H](OC(=O)c3ccccc3)[C@]3(O)C[C@H](OC(=O)[C@H](O)[C@@H](NC(=O)c4ccccc4)c4ccccc4)C(C)=C1C3(C)C)[C@]1(OC(C)=O)CO[C@@H]1C[C@@H]2O [PTX, paclitaxel] | 34.1 | 1.0 | only pumped from B to A, but not A to B |  |  |  |  |  |  |  |  |  |  |  | 
O=c1cc(-c2ccc(OCCOCCNCc3ccccc3)cc2)oc2ccccc12 [FM04, 2-(4-(2-(2-(benzylamino)ethoxy)ethoxy)phenyl)-4H-chromen-4-one] |  |  |  | 83 ± 7 | 83 | 1.8 | 64 to 83 | 61 to 153 | 153 ± 39 | 88 ± 52 | 64 ± 27 | 83 | 61 ± 13 | 83 ± 11 | 17
